# Source: patent publication US11352350B2, “IRAK degraders and uses thereof” (Kymera Therapeutics, Inc., priority 2018, dated 2022)
# Where two headings read alike, the source gives them in different places.
# Molecular target: IRAK4 (Homo sapiens (Human), UniProt Q9NWZ3)
# Assay: IRAK4 MSD degradation in OCI-LY10
# Type: cell-based
# Procedure: Degradation of IRAK4 in OCI-LY10 was quantitatively measured using Meso Scale Discovery technology. […] Compounds were then added to the assay plates with a final top concentration of 1 to 10 μM in a 1:3 dilution series with total of 8 doses. The assay plates were then incubated for 4 to 24 hours at 37° C. under 5% CO2. […] To prepare MSD assay plates (Meso Scale Discovery Catalog number L15XA-3), the plates were coated with […] capture antibody (mouse Anti-IRAK4 antibody [2H9], ab119942) in PBS, at 40 μL/well. […] Cell lysates were then added to MSD assay plates and the plates were incubated at room temperature for 1 hour. The plates were then washed 3 times with 150 μL/well TBST buffer and 25 μL/well primary detection antibody (rabbit Anti-IRAK4 antibody [Y279], from Abcam. Catalog number ab32511, […]). The assay plates were then incubated at room temperature for 1 hour, washed 3 times with 150 μL/well TBST buffer and 25 µL/well secondary detection antibody, SULFO-TAG anti-rabbit antibody were added (anti rabbit antibody from Meso Scale Discovery, Catalog number R32AB-1, 1 μg/mL). The assay plates were then incubated at room temperature for 1 hour, washed 3 times with 150 μL/well TB ST buffer, and 150 μL/well MSD reading buffer (Meso Scale Discovery catalog number R92TC-2) was added. The plates were then analyzed by a MSD reader (Meso Scale Discovery, Model Quick Plex SQ 120). The data was then analyzed by software Prism 7.0 from GraphPad and the dose-depended IRAK4 degradation were fit using a three-parameter logistic equation to calculate DC50.
# [1] = OCI-LY10, 4 hrs, MSD, read-out: IRAK4 MSD degradation in OCI-LY10 at 4 hrs: Average external-Abs DC50
# [2] = OCI-LY10, 24 hrs, MSD, read-out: IRAK4 MSD degradation in OCI-LY10 at 24 hrs: Average external-Abs DC50
# IRAK4, sequence (Q9NWZ3 whole entry): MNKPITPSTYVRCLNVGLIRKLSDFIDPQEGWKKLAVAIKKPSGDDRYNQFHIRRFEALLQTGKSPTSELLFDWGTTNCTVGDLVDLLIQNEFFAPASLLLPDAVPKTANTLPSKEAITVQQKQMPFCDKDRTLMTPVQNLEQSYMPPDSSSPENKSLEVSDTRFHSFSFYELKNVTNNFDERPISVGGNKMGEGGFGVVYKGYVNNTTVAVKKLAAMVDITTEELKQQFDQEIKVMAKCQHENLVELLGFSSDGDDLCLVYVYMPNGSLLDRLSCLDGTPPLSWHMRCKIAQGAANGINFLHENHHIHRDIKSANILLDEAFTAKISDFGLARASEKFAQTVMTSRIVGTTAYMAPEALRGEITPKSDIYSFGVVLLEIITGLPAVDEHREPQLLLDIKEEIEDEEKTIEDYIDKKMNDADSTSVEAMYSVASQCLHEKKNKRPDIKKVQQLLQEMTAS
Compound,DC50 [1] [nM],other results
CN(CCOCC1CCN(c2ccc3c(c2)n(C)c(=O)n3C2CCC(=O)NC2=O)CC1)C[C@H]1CC[C@H](n2cc(NC(=O)c3coc(-c4ccnc(NCC5CC5)c4)n3)c(C(F)F)n2)CC1 (stereo partly drawn) [I-56],100 to 1000,
Cn1c(=O)n(C2CCC(=O)NC2=O)c2cccc(CN3CCC(CCN4CCC(n5cc(NC(=O)c6coc(-c7ccnc(NCC8CC8)c7)n6)c(C(F)F)n5)CC4)CC3)c21 (stereo not drawn) [I-264],< 10,DC50 [2]: < 10 nM
Cn1c(=O)n(C2CCC(=O)NC2=O)c2ccc(CCCN3CCO[C@@H](CNC[C@H]4CC[C@H](n5cc(NC(=O)c6coc(-c7ccnc(NCC(F)(F)F)c7)n6)c(C(C)(C)O)n5)CC4)C3)cc21 (stereo partly drawn) [I-60],10 to 100,
CN(CCC1CCN(Cc2cccc3c2n(C)c(=O)n3C2CCC(=O)NC2=O)CC1)C[C@H]1CC[C@H](n2cc(NC(=O)c3coc(-c4ccnc(NCC5CC5)c4)n3)c(C(F)F)n2)CC1 (stereo partly drawn) [I-79],10 to 100,
Cn1c(=O)n(C2CCC(=O)NC2=O)c2ccc(CN3CCC(CCO[C@H]4C[C@H](N(C)C[C@H]5CC[C@H](n6cc(NC(=O)c7coc(-c8ccnc(NCC9CC9)c8)n7)c(C(F)F)n6)CC5)C4)CC3)cc21 (stereo partly drawn) [I-238],10 to 100,
CN(CCCOCC#Cc1cccc2c1n(C)c(=O)n2C1CCC(=O)NC1=O)C[C@H]1CC[C@H](n2cc(NC(=O)c3coc(-c4ccnc(NCC5CC5)c4)n3)c(C(F)F)n2)CC1 (stereo partly drawn) [I-88],100 to 1000,
Cn1c(=O)n(C2CCC(=O)NC2=O)c2cccc(CCCOCCCCCN3CCC(n4cc(NC(=O)c5coc(-c6ccnc(NCC7CC7)c6)n5)c(C(F)F)n4)CC3)c21 (stereo not drawn) [I-262],< 10,DC50 [2]: < 10 nM
Cn1c(=O)n(C2CCC(=O)NC2=O)c2cccc(CCCOCCCN(C[C@H]3CC[C@H](n4cc(NC(=O)c5coc(-c6ccnc(NCC7CC7)c6)n5)c(C(F)F)n4)CC3)C3CC3)c21 (stereo partly drawn) [I-64],100 to 1000,
CN(CCCOCCCc1ccc2c(c1)oc(=O)n2C1CCC(=O)NC1=O)C[C@H]1CC[C@H](n2cc(NC(=O)c3coc(-c4ccnc(NCC5CC5)c4)n3)c(C(F)F)n2)CC1 (stereo partly drawn) [I-87],< 10,
CN(C[C@@H]1CN(Cc2cccc3c2n(C)c(=O)n3C2CCC(=O)NC2=O)CCO1)C[C@H]1CC[C@H](n2cc(NC(=O)c3coc(-c4ccnc(NCC5CC5)c4)n3)c(C(F)F)n2)CC1 (stereo partly drawn) [I-78],10 to 100,
Cn1c(=O)n(C2CCC(=O)NC2=O)c2cccc(CN3CCC(OC4CCN(C[C@H]5CC[C@H](n6cc(NC(=O)c7coc(-c8ccnc(NCC9CC9)c8)n7)c(C(F)F)n6)CC5)CC4)CC3)c21 (stereo partly drawn) [I-256],< 10,
CN(CCCCc1cccc2c1n(C)c(=O)n2C1CCC(=O)NC1=O)C[C@H]1CC[C@H](n2cc(NC(=O)c3coc(-c4ccnc(NCC5CC5)c4)n3)c(C(F)F)n2)CC1 (stereo partly drawn) [I-66],< 10,
CN(CC[C@@H]1CN(CCCc2ccc3c(c2)n(C)c(=O)n3C2CCC(=O)NC2=O)CCO1)C[C@H]1CC[C@H](n2cc(NC(=O)c3coc(-c4ccnc(NCC5CC5)c4)n3)c(C(F)F)n2)CC1 (stereo partly drawn) [I-97],< 10,
Cn1c(=O)n(C2CCC(=O)NC2=O)c2cccc(CN3CCC(CC4CCN(C[C@H]5CC[C@H](n6cc(NC(=O)c7coc(-c8ccnc(NCC9CC9)c8)n7)c(C(F)F)n6)CC5)CC4)CC3)c21 (stereo partly drawn) [I-74],< 10,
CNc1cc(-c2nc(C(=O)Nc3cn([C@H]4CC[C@H](CN(C)CCCOCCCc5cccc6c5n(C)c(=O)n6C5CCC(=O)NC5=O)CC4)nc3C(F)F)co2)ccn1 (stereo partly drawn) [I-68],10 to 100,
CN(CCCOCCCc1cccc2c1n(C)c(=O)n2C1CCC(=O)NC1=O)C[C@H]1CC[C@H](n2cc(NC(=O)c3coc(-c4ccncc4)n3)c(C(F)F)n2)CC1 (stereo partly drawn) [I-69],100 to 1000,
CN(C[C@H]1CN(Cc2cccc3c2n(C)c(=O)n3C2CCC(=O)NC2=O)CCO1)C[C@H]1CC[C@H](n2cc(NC(=O)c3coc(-c4ccnc(NCC5CC5)c4)n3)c(C(F)F)n2)CC1 (stereo partly drawn) [I-77],10 to 100,
Cn1c(=O)n(C2CCC(=O)NC2=O)c2cccc(CCCOCCOCCOCCOCC(=O)N3CCN([C@H]4CC[C@H](Nc5ncnn6ccc(C7CCOCC7)c56)CC4)CC3)c21 (stereo partly drawn) [I-19],> 1000,DC50 [2]: > 1000 nM
CN(CC1CCN(CCC#Cc2ccc3c(c2)n(C)c(=O)n3C2CCC(=O)NC2=O)CC1)C[C@H]1CC[C@H](n2cc(NC(=O)c3coc(-c4ccnc(NCC5CC5)c4)n3)c(C(F)F)n2)CC1 (stereo partly drawn) [I-57],< 10,

Compound,DC50 [1] [nM],other results
O=C1CCC(N2C(=O)c3ccc(NCC4CC5(CCN(C[C@H]6CC[C@H](n7cc(NC(=O)c8cnn9ccc(N%10C[C@H]%11C[C@@H]%10CO%11)nc89)c(C(F)F)n7)CC6)CC5)C4)cc3C2=O)C(=O)N1 (stereo partly drawn) [I-556],,"DC50 (OCI-LY10, 4 hrs, read-out: IRAK4 MSD degradation in OCI-LY10 at 4 hrs: DC50): 10 to 100 nM; DC50 (OCI-LY10, 24 hrs, read-out: IRAK4 MSD degradation in OCI-LY10 at 24 hrs: DC50): < 10 nM"
Cn1c(=O)n(C2CCC(=O)NC2=O)c2cccc(CCCO[C@H]3CCN(C[C@H]4CC[C@H](n5cc(NC(=O)c6coc(-c7ccnc(NCC8CC8)c7)n6)c(C(F)F)n5)CC4)C3)c21 (stereo partly drawn) [I-72],10 to 100,
Cn1c(=O)n(C2CCC(=O)NC2=O)c2cccc(CCCOC3CCN(C[C@H]4CC[C@H](n5cc(NC(=O)c6cnn7cccnc67)c(C(F)F)n5)CC4)CC3)c21 (stereo partly drawn) [I-251],100 to 1000,
CN(CCCOCCCc1cccc2c1n(C)c(=O)n2C1CCC(=O)NC1=O)C[C@H]1CC[C@H](n2cc(NC(=O)c3cccc(C(F)(F)F)n3)c(C(C)(C)O)n2)CC1 (stereo partly drawn) [I-71],100 to 1000,
CN(CCCOCCCc1ccc2c(c1)n(C)c(=O)n2C1CCC(=O)NC1=O)C[C@H]1CC[C@H](n2cc(NC(=O)c3coc(-c4ccnc(NCC5CC5)c4)n3)c(C(C)(C)O)n2)CC1 (stereo partly drawn) [I-83],100 to 1000,
O=C1CCC(n2c3cccc(CCCOCCOCCNC[C@H]4CC[C@H](n5cc(NC(=O)c6coc(-c7ccnc(NCC8CC8)c7)n6)c(C(F)F)n5)CC4)c3c3cccnc32)C(=O)N1 (stereo partly drawn) [I-93],10 to 100,
CC(C)N(CCCOCCCc1cccc2c1n(C)c(=O)n2C1CCC(=O)NC1=O)C[C@H]1CC[C@H](n2cc(NC(=O)c3coc(-c4ccnc(NCC5CC5)c4)n3)c(C(F)F)n2)CC1 (stereo partly drawn) [I-63],10 to 100,
O=C1CCC(n2c3ccc(CCCN4CC5(CCN(C(=O)[C@H]6CC[C@H](n7cc(NC(=O)c8cnn9ccc(N%10C[C@H]%11C[C@@H]%10CO%11)nc89)c(C(F)F)n7)CC6)CC5)C4)cc3c3cccnc32)C(=O)N1 (stereo partly drawn) [I-388],10 to 100,
Cn1c(=O)n(C2CCC(=O)NC2=O)c2ccc(CN3CCC(CCC(=O)N4CCC(n5cc(NC(=O)c6coc(-c7ccnc(NCC8CC8)c7)n6)c(C(F)F)n5)CC4)CC3)cc21 (stereo not drawn) [I-255],10 to 100,DC50 [2]: < 10 nM
Cn1c(=O)n(C2CCC(=O)NC2=O)c2cccc(CN3CCC(CCCN4CCC(n5cc(NC(=O)c6coc(-c7ccnc(NCC8CC8)c7)n6)c(C(F)F)n5)CC4)CC3)c21 (stereo not drawn) [I-253],10 to 100,
CN(CCOC(=O)NCc1ccc2c(c1)n(C)c(=O)n2C1CCC(=O)NC1=O)C[C@H]1CC[C@H](n2cc(NC(=O)c3coc(-c4ccnc(NCC5CC5)c4)n3)c(C(F)F)n2)CC1 (stereo partly drawn) [I-91],100 to 1000,
Cn1c(=O)n(C2CCC(=O)NC2=O)c2cccc(CCCO[C@@H]3CCN(C[C@H]4CC[C@H](n5cc(NC(=O)c6coc(-c7ccnc(NCC8CC8)c7)n6)c(C(F)F)n5)CC4)C3)c21 (stereo partly drawn) [I-73],< 10,
CN(CC[C@H]1CN(CCCc2ccc3c(c2)n(C)c(=O)n3C2CCC(=O)NC2=O)CCO1)C[C@H]1CC[C@H](n2cc(NC(=O)c3coc(-c4ccnc(NCC5CC5)c4)n3)c(C(F)F)n2)CC1 (stereo partly drawn) [I-96],10 to 100,
Cn1c(=O)n(C2CCC(=O)NC2=O)c2ccc(CCCOCCCCCN3CCC(n4cc(NC(=O)c5coc(-c6ccnc(NCC7CC7)c6)n5)c(C(F)F)n4)CC3)cc21 (stereo not drawn) [I-261],< 10,DC50 [2]: < 10 nM
CN(CCOCCNCc1ccc2c(c1)n(C)c(=O)n2C1CCC(=O)NC1=O)C(=O)[C@H]1CC[C@H](n2cc(NC(=O)c3coc(-c4ccnc(NCC5CC5)c4)n3)c(C(F)F)n2)CC1 (stereo partly drawn) [I-55],< 10,
CN1CCN(c2ccn3ncc(C(=O)Nc4cn([C@H]5CC[C@H](CN6CCC(OCCCc7cccc8c7n(C)c(=O)n8C7CCC(=O)NC7=O)CC6)CC5)nc4C(F)F)c3c2)CC1 (stereo partly drawn) [I-258],10 to 100,DC50 [2]: 10 to 100 nM
CN(CCOCCCc1cccc2c1N(C)C(=O)C2C1CCC(=O)NC1=O)CC[C@H]1CC[C@H](n2cc(NC(=O)c3coc(-c4ccnc(NCC5CC5)c4)n3)c(C(F)F)n2)CC1 (stereo partly drawn) [I-154],10 to 100,DC50 [2]: 10 to 100 nM
Cn1c(=O)n(C2CCC(=O)NC2=O)c2cccc(CN3CCC(OCC4CCN(C[C@H]5CC[C@H](n6cc(NC(=O)c7coc(-c8ccnc(NCC9CC9)c8)n7)c(C(F)F)n6)CC5)CC4)CC3)c21 (stereo partly drawn) [I-248],< 10,
